Measurements from patent US7301022B2, “Vanilloid receptor ligands and their use in treatments” (Amgen Inc., priority 2005, dated 2007).
Structures can show the parent of a compound that is named as a salt.

CC(=O)Nc1nc2c(Oc3cc(-c4ccc(C(F)(F)F)nc4NCC4CCCCN4CC(C)C)ncn3)cccc2s1 (racemic) [Example 31, N-(4-(6-(2-(((R,S)-1-isobutylpiperidin-2-yl)methylamino)-6-(trifluoromethyl)pyridin-3-yl)pyrimidin-4-yloxy)benzo[d]thiazol-2-yl)acetamide]
melting point: 121.7 to 121.9 °C

CC(C)CN1CCCCC1C(=O)Nc1cc(C(F)(F)F)ccc1-c1cc(Oc2cccc3[nH]c(=O)c(N)nc23)ncn1 (stereo not drawn) [Example 42, N-(2-(6-(3-Amino-2-oxo-1,2-dihydroquinoxalin-5-yloxy)pyrimidin-4-yl)-5-(trifluoromethyl)phenyl)-1-isobutylpiperidine-2-carboxamide]
melting point: > 250 °C

CC(=O)Nc1nc2c(Oc3cc(-c4ccc(C(F)(F)F)cc4NC(=O)C4CCCCN4C(C)C)ncn3)cccc2s1 (stereo not drawn) [Example 50, N-(2-(6-(2-Acetamidobenzo[d]thiazol-4-yloxy)pyrimidin-4-yl)-5-(trifluoromethyl)phenyl)-1-isopropylpiperidine-2-carboxamide]
melting point: 260 °C (dec.)

CC(C)CN1CCC[C@H]1CNc1nc(C(F)(F)F)ccc1-c1cc(Oc2cccc3sc(N)nc23)ncn1 [Example 25]
melting point: 198 °C (dec.)

CC(=O)Nc1nc2c(Oc3cc(-c4ccc(C(F)(F)F)nc4NC[C@@H]4CCCN4CC(C)C)ncn3)cccc2s1 [Example 30]
melting point: 105.8 to 107.3 °C

CC(C)N1CCCCC1CNc1nc(C(F)(F)F)ccc1-c1cc(Oc2cccc3sc(N)nc23)ncn1 (stereo not drawn) [Example 27]
melting point: 211.3 to 213 °C

CC(=O)Nc1nc2c(Oc3cc(-c4ccc(C(F)(F)F)cc4NC(=O)C4(C)CCCCN4)ncn3)cccc2s1 (stereo not drawn) [Example 43, N-(2-(6-(2-Acetamidobenzo[d]thiazol-4-yloxy)pyrimidin-4-yl)-5-(trifluoromethyl)phenyl)-2-methylpiperidine-2-carboxamide]
melting point: 146.4 to 148.8 °C

CC(=O)Nc1nc2c(Oc3cc(-c4ccc(C(F)(F)F)cc4NC(=O)C4CCCCN4CC4CC4)ncn3)cccc2s1 (stereo not drawn) [Example 49, N-(2-(6-(2-Acetamidobenzo[d]thiazol-4-yloxy)pyrimidin-4-yl)-5-(trifluoromethyl)phenyl)-1-(cyclopropylmethyl)piperidine-2-carboxamide]
melting point: 212.3 to 213.5 °C

CC(=O)Nc1nc2c(Oc3cc(-c4ccc(C(F)(F)F)cc4NC(=O)C4CCCCN4CC(C)C)ncn3)cccc2s1 (stereo not drawn) [Example 51, N-(2-(6-(2-Acetamidobenzo[d]thiazol-4-yloxy)pyrimidin-4-yl)-5-(trifluoromethyl)phenyl)-1-isobutylpiperidine-2-carboxamide]
melting point: 153.4 to 154.9 °C

CC(=O)Nc1nc2c(Oc3cc(-c4ccc(C(F)(F)F)nc4NCC4CCCCN4C(C)C)ncn3)cccc2s1 (stereo not drawn) [Example 32]
melting point: 159.3 to 162 °C

CC(=O)Nc1nc2c(Oc3cc(-c4ccc(C(F)(F)F)nc4NC4CC(C)(C)NC(C)(C)C4)ncn3)cccc2s1 (as salt: trifluoroacetic acid salt) [Example 36, N-(4-(6-(2-(2,2,6,6-Tetramethylpiperidin-4-ylamino)-6-(trifluoromethyl)-pyridin-3-yl)pyrimidin-4-yloxy)benzo[d]thiazol-2-yl)acetamide trifluoroacetic acid salt]
melting point: 253.4 to 254.1 °C

CC(=O)Nc1nc2c(Oc3cc(-c4ccc(C(F)(F)F)nc4N(C)CC4CCCCN4CC(C)C)ncn3)cccc2s1 (stereo not drawn) [Example 29, N-(4-(6-(2-(((1-isobutylpiperidin-2-yl)methyl)(methyl)amino)-6-(trifluoromethyl)pyridin-3-yl)pyrimidin-4-yloxy)benzo[d]thiazol-2-yl)acetamide]
melting point: 123.2 to 125.4 °C

CC(C)CN1CCCCC1CNc1nc(C(F)(F)F)ccc1-c1cc(Oc2cccc3sc(N)nc23)ncn1 (stereo not drawn) [Example 26]
melting point: 118 to 118.2 °C

CC(=O)Nc1nc2c(Oc3cc(-c4ccc(C(F)(F)F)nc4NC4CCN(CC(C)C)C4)ncn3)cccc2s1 (stereo not drawn) [Example 3, N-(4-(6-(2-(1-Isobutylpyrrolidin-3-ylamino)-6-(trifluoromethyl)pyridin-3-yl)pyrimidin-4-yloxy)benzo[d]thiazol-2-yl)acetamide]
melting point: 138 to 139 °C

CC(C)CN1CCCCC1CNc1nc(C(F)(F)F)ccc1-c1cc(Oc2cccc3[nH]c(=O)c(N)nc23)ncn1 (stereo not drawn) [Example 6]
melting point: 228 to 229 °C

CC(=O)Nc1nc2c(Oc3cc(-c4ccc(C(F)(F)F)nc4NC4CCN(C(C)C)C4)ncn3)cccc2s1 (stereo not drawn) [Example 4, N-(4-(6-(2-(1-Isopropylpyrrolidin-3-ylamino)-6-(trifluoromethyl)pyridin-3-yl)pyrimidin-4-yloxy)benzo[d]thiazol-2-yl)acetamide]
melting point: 140 to 141 °C

CC(=O)Nc1nc2c(Oc3cc(-c4ccc(C(F)(F)F)cc4NCc4cncn4C)ncn3)cccc2s1 [Example 55, N-(4-(6-(2-((1-Methyl-1H-imidazol-5-yl)methylamino)-4-(trifluoromethyl)-phenyl)pyrimidin-4-yloxy)benzo[d]thiazol-2-yl)acetamide]
melting point: 263 to 265.2 °C

CC(=O)Nc1nc2c(Oc3cc(-c4ccc(C(F)(F)F)cc4NCc4cncn4Cc4ccccc4)ncn3)cccc2s1 [Example 54, N-(4-(6-(2-((1-Benzyl-1H-imidazol-5-yl)methylamino)-4-(trifluoromethyl)-phenyl)pyrimidin-4-yloxy)benzo[d]thiazol-2-yl)acetamide]
melting point: 264 to 264.1 °C

CC(C)CN1CCCCC1C(=O)Nc1cc(C(F)(F)F)ccc1-c1cc(Oc2cccc3ccc(N)nc23)ncn1 (stereo not drawn)
melting point: 111.1 to 113.9 °C

CC1CC[C@@H](C(=O)Nc2cc(C(F)(F)F)ccc2-c2cc(Oc3cccc4ccc(N)nc34)ncn2)N1 (mixture of isomers) [Example 48, (2S,5R,S)-N-(2-(6-(2-Aminoquinolin-8-yloxy)pyrimidin-4-yl)-5-(trifluoromethyl)phenyl)-5-methylpyrrolidine-2-carboxamide]
melting point: 162.9 to 164 °C

CC(C)CN1CCC[C@H]1CN(C)c1nc(C(F)(F)F)ccc1-c1cc(Oc2cccc3sc(N)nc23)ncn1 [Example 28]
melting point: 93.2 to 96.8 °C

CC(C)CN1CCCCC1CN(C)c1nc(C(F)(F)F)ccc1-c1cc(Oc2cccc3sc(N)nc23)ncn1 (stereo not drawn) [Example 24, 4-(6-(2-(((1-Isobutylpiperidin-2-yl)methyl)(methyl)amino)-6-(trifluoromethyl)pyridin-3-yl)pyrimidin-4-yloxy)benzo[d]thiazol-2-amine]
melting point: 98.9 to 101.9 °C

CC1(C)CC(Nc2nc(C(F)(F)F)ccc2-c2cc(Oc3cccc4sc(N)nc34)ncn2)CC(C)(C)N1 (as salt: trifluoroacetic acid salt) [Example 35, 4-(6-(2-(2,2,6,6-Tetramethylpiperidin-4-ylamino)-6-(trifluoromethyl)pyridin-3-yl)pyrimidin-4-yloxy)benzo[d]thiazol-2-amine trifluoroacetic acid salt]
melting point: 264 to 265.1 °C

CC(=O)Nc1nc2c(Oc3cc(-c4ccc(C(F)(F)F)cc4NC(=O)[C@@H]4CCN4C(C)C)ncn3)cccc2s1 [Example 37, (2S)-N-(2-(6-(2-Acetamidobenzo[d]thiazol-4-yloxy)pyrimidin-4-yl)-5-(trifluoromethyl)phenyl)-1-isopropylazetidine-2-carboxamide]
melting point: 198.8 to 199.4 °C

CC(C)CN1CCCCC1C(C)(C)Nc1nc(C(F)(F)F)ccc1-c1cc(Oc2cccc3sc(N)nc23)ncn1 (stereo not drawn) [Example 5, 4-(6-(2-(2-(1-Isobutylpiperidin-2-yl)propan-2-ylamino)-6-(trifluoromethyl)pyridin-3-yl)pyrimidin-4-yloxy)benzo[d]thiazol-2-amine]
melting point: 166 to 170 °C

CC(=O)Nc1nc2c(Oc3cc(-c4ccc(C(F)(F)F)cc4NC(=O)C4(C)CCCCN4CC(C)C)ncn3)cccc2s1 (stereo not drawn) (as salt: trifluoroacetic acid salt) [Example 44, N-(2-(6-(2-Acetamidobenzo[d]thiazol-4-yloxy)pyrimidin-4-yl)-5-(trifluoromethyl)phenyl)-1-isobutyl-2-methylpiperidine-2-carboxamide trifluoroacetic acid salt]
melting point: < 80 °C

CC(=O)Nc1nc2c(Oc3cc(-c4ccc(C(F)(F)F)cc4NC(=O)[C@@H]4CCN4CC(C)C)ncn3)cccc2s1 [Example 38, (2S)-N-(2-(6-(2-Acetamidobenzo[d]thiazol-4-yloxy)pyrimidin-4-yl)-5-(trifluoromethyl)phenyl)-1-isobutylazetidine-2-carboxamide]
melting point: 174.4 to 174.9 °C
